Measurements from article PMC4018175 (Journal of Medicinal Chemistry, 2014).
Counter-ions that a name gives are not always drawn.

Key:
P2Y6R [1] = molecular target: T1, P2Y6R (Homo sapiens, UniProt Q15077); test: Fluorescent ligand binding of 28 by flow cytometry; details: 100 nM for 30 min at 37 °C in the presence of 125 (100 μM)
P2Y6R [2] = molecular target: T1, P2Y6R; test: Fluorescence microscopy of P2Y6R-expressing 1321N1 astrocytoma cells; type: cell-based; details: 1 μM, 30 min at 37 °C, in presence and absence of 118 (10 μM)

T1 sequence (Q15077 whole entry): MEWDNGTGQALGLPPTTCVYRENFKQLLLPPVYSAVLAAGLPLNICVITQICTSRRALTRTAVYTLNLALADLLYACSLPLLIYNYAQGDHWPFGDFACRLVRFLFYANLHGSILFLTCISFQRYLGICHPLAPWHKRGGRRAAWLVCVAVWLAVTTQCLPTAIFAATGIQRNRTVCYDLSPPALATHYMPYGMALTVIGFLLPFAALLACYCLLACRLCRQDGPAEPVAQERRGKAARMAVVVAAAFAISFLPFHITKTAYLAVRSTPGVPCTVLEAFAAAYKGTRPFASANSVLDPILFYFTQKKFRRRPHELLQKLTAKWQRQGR

SMILES: O=C(CCCCCNC(=O)COc1ccc(/C=C/c2ccc3n2[B-](F)(F)[N+]2=C(c4cccs4)C=CC2=C3)cc1)NCCCn1cc(CCNC(=O)COc2ccc(CCCO/N=c3/ccn([C@@H]4O[C@H](COP(=O)(O)OP(=O)(O)OP(=O)(O)O)[C@@H](O)[C@H]4O)c(=O)[nH]3)cc2)nn1 [Compound 28, N^4-(3-((4-O-CH2CONH-(CH2)2(BODIPY-1H-1,2,3-Triazol-4-yl))phenyl)propyloxy)cytidine-5′-triphosphate Triethylammonium Salt]
- Cell labeling by fluorescent ligand (FCM) (P2Y6R [1]): significant cell labeling
- Labeling of cells expressing the receptor (fluorescence microscopy) (P2Y6R [2]): specifically labeled cells expressing the receptor
